From US20190352638A1, “THERAPEUTIC MODULATION OF C-FOS IN THE EYE” (Children's Medical Center Corporation, priority 2016, published 2019)

Experiments:
Vldlr^−/− mice = experiment: Neovascularization analysis (lesion number and size) in Vldlr^−/− retina whole mounts; format: in vivo, mouse
Method: (§1) All animal studies were performed according to protocols approved by the Institutional Animal Care and Use Committee at the Boston Children's Hospital. Vldlr^+/− (heterozygous) mice from Jackson Laboratory (Stock #002529) were bred to generate homozygous and wild type littermates. SR11302 (TOCRIS, Cat. 2476) was dissolved in corn oil. Vldlr^−/− pups were orally gavaged with SR11302 or corn oil as control at a dose of 1 mg/kg body weight daily from P5 to P15. P16 retinas were collected for PCR and neovascularization analysis.
Vldlr^−/− and wild type retina whole mounts were stained with isolectin IB4 and imaged with AxioObserver Z1 microscope (Zeiss) with a monochrome digital camera (AxioCam MRm; Zeiss) focusing on the terminal end of lesions on the RPE layer (usually at P16), and individual images were merged to create one retinal image using the automated merge function (mosaiX; Zeiss) in the software (AxioVision 4.6.3.0; Zeiss). Image J was used for quantification of subretinal neovascularization lesion number and areas in Vldlr^−/− retinas (National Institutes of Health, imagej.nih.gov/ij/) with designed plugins adapted from the method used to measure retinal neovascularization (SWIFT_NV) in the OIR model (Stahl, A. et al., Angiogenesis 12, 297-301 (2009)) which use a user-designated threshold to mark lesion structures that clearly stand out from background fluorescence of normal vessels, and can automatically remove small artifacts by selecting objects with a minimum size of 100 pixels. Other larger artifacts such as occasional cellular debris or retinal periphery with hyperfluorescence can be manually excluded from quantification. Lesion numbers and areas were quantified with researchers masked to the identity of samples.
At P16, mice were anesthetized, the eyes were enucleated and fixed in 4% paraformaldehyde followed by dissection and staining of the retinas with fluoresceinated isolectin IB4 (Invitrogen) to visualize subretinal neovascularization in whole mounted retinas. 3D reconstructed images were taken with confocal microscopy (Leica TCS SP2 AOBS) and z-stacks were 3D reconstructed using Volocity software (Perkin Elmer).
Subretinal injection into P0 neonate eyes was performed as previously described (Matsuda, T., et al., Proc. Nat. Acad. Sci. USA 101, 16-22 (2004), and Wang, S., et al., Developmental cell 30, 513-527 (2014)) under a dissection microscope. P0 Vldlr^−/− or wild type pups were anesthetized on ice for several minutes. The eyelid was prepped with Betadine, followed by water, then 70% ethanol using cotton swabs. A blade was used to gently cut open the eyelid. The injection needle was inserted into the eyeball through the incision until slight resistance was felt. Approximately 0.5 μl solution containing siRNA/siControl or AAV2/Control (10^12-10^13 gc/ml) was introduced into the subretinal space using a pulled angled glass pipette controlled by a FemtoJet (Eppendorf). The left eyes were uninjected for within-animal controls. Curved forceps were used to slowly close the eyelid. Mice were placed on a circulating water blanket for warmth. The retinas were collected at P12 for PCR assay and P16 for whole mount analysis.

[1] = tested on: c-fos and its target genes (Mmp10, Il6, IlIb and Tnf); experiment: Quantitative RT-PCR of retinal mRNA; format: in vivo, mouse; conditions: oral gavage 1 mg/kg daily P5 to P15; Vldlr^−/− retinas
Method: as §1
Total RNA was extracted from mouse retinas using RNeasy kit (Qiagen) and reverse-transcribed with SuperScript® III Reverse Transcriptase (Thermo Fisher) to generate cDNA. Quantitative PCR was performed using a 7300 system (Applied Biosystems) with KAPA SYBR FAST qPCR Kits (Kapa Biosystems) using Rhodopsin, Pecam, Vldlr, CD68, CD11b, CD45, c-Fos, Il6, Il11b, Tnf, mmp10, Socs3, uPA, c-Jun, VEGF120, VEGF164, VEGF188 primers.
Subretinal injection into P0 neonate eyes was performed as previously described (Matsuda, T., et al., Proc. Nat. Acad. Sci. USA 101, 16-22 (2004), and Wang, S., et al., Developmental cell 30, 513-527 (2014)) under a dissection microscope. P0 Vldlr^−/− or wild type pups were anesthetized on ice for several minutes. The eyelid was prepped with Betadine, followed by water, then 70% ethanol using cotton swabs. […]

AP-1 = conditions: without activating transcription of retinoic acid response element; Fanjul et al. 1994; cited from earlier work
[2] = oral gavage 1 mg/kg daily P5 to P15, Vldlr^−/− mice
[3] = oral gavage, Vldlr^−/− retinas vs controls

Q: Which results are given for `CC1=C(/C=C/C(=C/C=C/C(C)=C/C(=O)O)c2ccc(C)cc2)C(C)(C)CCC1` [SR11302, (E,E,Z,E)-3-Methyl-7-(4-methylphenyl)-9-(2,6,6-trimethyl-1-cyclohexen-1-yl)-2,4,6,8-nonatetraenoic acid]?
A: lesion size decreased (Vldlr^−/− mice; [2]): 40%; total lesion number reduced (Vldlr^−/− mice; [2]): 48%; neovascularization (in words) (Vldlr^−/− mice; [3]): inhibited; total lesion number (in words) (Vldlr^−/− mice; [3]): reduced; total lesion size (in words) (Vldlr^−/− mice; [3]): reduced; c-FOS target genes (Il6, IlIb and Tnf) mRNA [1]: reduced; c-fos expression itself [1]: without influencing; AP-1 activity (AP-1): specifically inhibits
